Test results from patent EP0080682A1, “Bisisoquinolinium compound, pharmaceutical compositions and synthesis” (THE WELLCOME FOUNDATION LIMITED, priority 1981, dated 1983).
Read-outs that look alike come from different tables or passages of the source.

What was measured:
[1] = cited from earlier work
[2] = test system: isometric twitch of the tibialis anterior muscle; assay: Neuromuscular block after intravenous administration: isometric twitch of the tibialis anterior muscle in response to peroneal nerve stimulation, Rhesus monkeys; type: in vivo; settings: Rhesus Monkey
Excerpt: (§1) Trans, trans-2,2'-(trimethylenebis(carbonyloxytri- methylene))bis(1,2,3,4-tetrahydro-6,7,8-trimethoxy-2-methyl-1-(3,4,5-trimethoxybenzyl)isoquinolinium) dichloride (prepared as in Example 3) was examined by intravenous administration to cats and Rhesus monkeys, maintained by artificial ventilation and prepared for recording the isometric twitch of the tibialis anterior muscle in response to stimulation of peroneal nerve.

[3] = test system: isometric twitch of the tibialis anterior muscle; assay: Neuromuscular block after intravenous administration: isometric twitch of the tibialis anterior muscle in response to peroneal nerve stimulation, cats; type: in vivo; settings: Cat
Excerpt: as §1

[4] = intravenous, time from injection to 95% recovery

CC(=O)O[C@H]1C[C@@H]2CC[C@@H]3[C@H](CC[C@@]4(C)[C@H]3C[C@H]([N+]3(C)CCCCC3)[C@@H]4OC(C)=O)[C@@]2(C)C[C@@H]1[N+]1(C)CCCCC1 [pancuronium]
dose of agents most widely used clinically ([1]; in vivo): 0.06 to 0.08 mg/kg

COc1cc(CC2c3c(cc(OC)c(OC)c3OC)CC[N+]2(C)CCCOC(=O)CCCC(=O)OCCC[N+]2(C)CCc3cc(OC)c(OC)c(OC)c3C2Cc2cc(OC)c(OC)c(OC)c2)cc(OC)c1OC (stereo not drawn) [Example 1, trans, trans-2,2'-(trimethylenebis(carbonyloxytrimethy-lene))bis(1,2,3,4-tetrahydro-6,7,8-trimethoxy-2-methyl-1-(3,4,5-trimethoxybenzyl)isoquinolinium) dichloride]
ED95 ([2]; Macaca mulatta, intravenous administration, artificial ventilation, 4 animals): 0.05 mg/kg | Duration [2, 4]: ≃15^+ Minutes | Duration [3, 4]: ≃25 Minutes | ED95 ([3]; Felis catus, intravenous administration, artificial ventilation, 2 animals): 0.03 mg/kg

COc1cc2c3cc1Oc1cc(ccc1O)C[C@@H]1c4c(cc(OC)c(O)c4Oc4ccc(cc4)C[C@@H]3N(C)CC2)CC[N+]1(C)C [d-tubocurarine]
dose of agents most widely used clinically ([1]; clinical use, compared with intravenous paralysing dose of compounds of formula (I)): 0.4 to 0.6 mg/kg
